# Results from publication PMC5938390, “Tachyplesin Causes Membrane Instability That Kills Multidrug-Resistant Bacteria by Inhibiting the 3-Ketoacyl Carrier Protein Reductase FabG” (Frontiers in Microbiology, 2018).
# Positions of bridges follow the written chain, without caps; N, C: chain ends. No end group written: not given here.
# B1: tachyplesin III (peptide)
# peptide: KWCFRVCYRGICYRKCR
# modifications: disulfide 7-12, 3-16; ends not checked
# notes: tachyplesin III, cationic beta-hairpin antimicrobial peptide from horseshoe crab hemocytes; 17 residues; Coupled to the CM5 chip through amines in the SPR; source: synthetic peptide (purity ≥ 95%, synthesized by GL Biochem Co., Ltd, Shanghai, China)
# How the values were obtained:
# A. baumannii 1408 [1] = experiment: MIC against MDR clinical isolate; format: cell-based, Acinetobacter baumannii
# P. aeruginosa 1409 [2] = experiment: MIC against MDR clinical isolate; format: cell-based, Pseudomonas aeruginosa
# K. pneumoniae 5 [3] = experiment: MIC against clinical isolate; format: cell-based, Klebsiella pneumoniae
# E. coli 513 [4] = experiment: MIC against clinical isolate; format: cell-based, Escherichia coli
# [5] = test system: P. aeruginosa strain 1409; experiment: Membrane rupture by propidium iodide staining; format: cell-based, Pseudomonas aeruginosa; details: LB medium, 25°C, 1 h, then PI 10 μg/ml 30 min
# Procedure: These studies were carried out as we previously reported with slight modifications and briefly introduced as follows ([Liu et al., 2017]). […] Cytotoxicity in different cell lines was assessed using the Cell Proliferation Kit II (XTT) (Roche), and cytotoxicity in hemocytes was evaluated by the increase in the absorbance at 540 nm after peptide incubation. Membrane rupture was indicated by the entrance of the DNA-binding fluorescent dye PI into MDR clinical isolates of P. aeruginosa strain 1409. Membrane translocation of N-terminal FITC-conjugated tachyplesin III (purity ≥ 95%, synthesized by GL Biochem Co., Ltd, Shanghai, China) into MDR clinical isolates of Acinetobacter baumannii strain 1408 were detected by confocal laser-scanning microscopy.
# After centrifugation at 3000 g for 10 min, cells were resuspended in the same volume of PBS (phosphate-buffered saline, 8 g/L NaCl, 0.2 g/L KCl, 1.44 g/L Na2HPO4, 0.24 g/L KH2PO4, pH 7.4). Then, PI was added to a final concentration of 10 μg/ml. After 30 min of incubation at 25°C, the cells were washed three times with PBS and immediately imaged with a fluorescence microscope.
# A. baumannii 1408 [6] = experiment: Transcriptome analysis (RNA sequencing, FPKM, DESeq); format: cell-based, Acinetobacter baumannii; details: Ab, Ta 16 μg/ml or Lvf 32 μg/ml, 30 min, 37°C
# Procedure: (§1) The Vitek 32 system (bioMerieux, France) and 16S rDNA sequencing were used to verify the clinical isolates A. baumannii 1408, P. aeruginosa 1409, Klebsiella pneumoniae 5 and E. coli 513, which were grown overnight in Luria-Bertani (LB) medium at 37°C with constant shaking at 220 rpm to reach the middle of their logarithmic growth phase. […] After the addition of 2 volumes of RNAprotect Bacteria Reagent (QIAGEN) to stabilized RNA, samples were vortexed for 5 s, incubated for 5 min at room temperature (15–25°C) and collected by centrifugation at 4°C for 5 min at 4000 g.
# (§2) RNA isolation and sequencing were performed by Novogene Bioinformatics Technology Co., Ltd. (Beijing, China) as previously described ([Liu B. et al., 2014]). Clean reads were mapped to the corresponding bacterial genomes using Bowtie 2 software ([Langmead and Salzberg, 2012]). Gene expression was calculated using the FPKM (expected number of fragments per kilobase of transcript sequence per millions of base pairs sequenced) method with HTSeq software (union model) ([Anders et al., 2015]). Differentially expressed genes were selected based on the DESeq R package with Padj values < 0.05 ([Anders and Huber, 2010]). KEGG pathway analysis was performed using KOBAS (2.0), and the corrected p value cut-off was set at 0.05 ([Li et al., 2015]).
# E. coli 513 [7] = experiment: as above; format: cell-based, Escherichia coli; details: Ec, Ta 16 μg/ml or Lvf 32 μg/ml, 30 min, 37°C
# Procedure: as §1, §2
# K. pneumoniae 5 [8] = experiment: as above; format: cell-based, Klebsiella pneumoniae; details: Kp, Ta 16 μg/ml or Lvf 32 μg/ml, 30 min, 37°C
# Procedure: as §1, §2
# P. aeruginosa 1409 [9] = format: cell-based, Pseudomonas aeruginosa; details: Pa, Ta 16 μg/ml or Lvf 32 μg/ml, 30 min, 37°C
# Procedure: as §1, §2
# [10] = target: T1, 3-ketoacyl carrier protein reductase FabG from E. coli (E. coli, UniProt P0AEK2 1-244); experiment: SPR; tachyplesin III amine-coupled to a CM5 chip (approximately 1000 resonance units); FabG (1.25, 2.5, 5, 10 μg/mL) in HBS-N running buffer injected at 20 μl/min for 6 min; Biacore 3000; 1:1 Langmuir binding model; details: both partners purified
# T1 construct: FabG, 3-ketoacyl-acyl carrier protein reductase, E. coli; cloned into the NcoI and XhoI sites of pET28a; also called 3-ketoacyl-acyl carrier protein reductase; β-ketoacyl-acyl carrier protein (ACP) reductase FabG; source: E. coli BL21 DE3 (pET28a), purified with Ni resin
# T1 sequence: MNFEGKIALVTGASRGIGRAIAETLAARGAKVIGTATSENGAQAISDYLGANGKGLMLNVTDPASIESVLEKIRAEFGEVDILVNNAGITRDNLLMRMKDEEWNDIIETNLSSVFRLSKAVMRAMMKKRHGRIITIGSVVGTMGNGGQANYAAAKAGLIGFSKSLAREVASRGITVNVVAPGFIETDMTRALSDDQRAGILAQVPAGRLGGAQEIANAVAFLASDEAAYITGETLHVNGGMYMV
molecule,measurement,setting,value
C[C@H]1COc2c(N3CCN(C)CC3)c(F)cc3c(=O)c(C(=O)O)cn1c23 [levofloxacin],32 μg/ml levofloxacin expressed as multiple of MIC,A. baumannii 1408 [1],1 × MIC
same,32 μg/ml levofloxacin expressed as multiple of MIC,P. aeruginosa 1409 [2]; P. aeruginosa 1409,2 × MIC
same,1/4× MIC,P. aeruginosa 1409 [2]; P. aeruginosa strain 1409,4 µg/mL
same,4× MIC,P. aeruginosa 1409 [2]; P. aeruginosa strain 1409,64 µg/mL
same,32 μg/ml levofloxacin expressed as multiple of MIC,K. pneumoniae 5 [3],2 × MIC
same,32 μg/ml levofloxacin expressed as multiple of MIC,E. coli 513 [4],1 × MIC
same,membrane integrity (PI fluorescence),[5]; 1/4× MIC,did not affect the integrity of bacterial membranes
same,membrane integrity (PI fluorescence),[5]; 4× MIC (high concentration),some of the bacterial membranes were broken slightly
same,FPKM of gene A1S_1815,A. baumannii 1408 [6]; control 0,0
same,FPKM of gene Novel00132,A. baumannii 1408 [6]; control 18.2658,8.387
same,FPKM of gene A1S_0707,A. baumannii 1408 [6]; control 51.3724,62.4914
same,FPKM of gene A1S_2182,A. baumannii 1408 [6]; control 136.449,191.991
same,FPKM of gene A1S_2061 (3-ketoacyl-acyl carrier protein reductase),A. baumannii 1408 [6]; control 323,328
same,FPKM of gene A1S_1368,A. baumannii 1408 [6]; control 2030.48,1961.71
same,readcount of gene A1S_0001 in treated sample,A. baumannii 1408 [6]; differential analysis,246.119
same,readcount of gene A1S_0002 in treated sample,A. baumannii 1408 [6]; differential analysis,308.109
same,readcount of gene A1S_0003 in treated sample,A. baumannii 1408 [6]; differential analysis,33.1432
same,readcount of gene A1S_0004 in treated sample,A. baumannii 1408 [6]; differential analysis,622.97
same,FPKM of gene b1943,E. coli 513 [7]; control 0,0
same,FPKM of gene b1815,E. coli 513 [7]; control 22.7313,15.6958
same,FPKM of gene b0242,E. coli 513 [7]; control 40.7621,43.1933
same,FPKM of gene b2495,E. coli 513 [7]; control 62.5019,46.4771
same,FPKM of gene b4004,E. coli 513 [7]; control 64.6122,63.7219
same,FPKM of gene b3846 (3-hydroxyacyl-CoA dehydrogenase),E. coli 513 [7]; control 97,94
same,FPKM of gene b1093 (3-ketoacyl-acyl carrier protein reductase),E. coli 513 [7]; control 633,627
same,readcount of gene b0001 in treated sample,E. coli 513 [7]; differential analysis,28.7713
same,readcount of gene b0002 in treated sample,E. coli 513 [7]; differential analysis,277.558
same,readcount of gene b0003 in treated sample,E. coli 513 [7]; differential analysis,192.091
same,readcount of gene b0004 in treated sample,E. coli 513 [7]; differential analysis,222.554
same,readcount of gene b0005 in treated sample,E. coli 513 [7]; differential analysis,14.3856
same,FPKM of gene KPNJ2_01473,K. pneumoniae 5 [8]; control 0,1.282
same,FPKM of gene KPNJ2_01064,K. pneumoniae 5 [8]; control 3.68216,0
same,FPKM of gene KPNJ2_04725,K. pneumoniae 5 [8]; control 22.8601,21.9489
same,FPKM of gene KPNJ2_03426 (3-ketoacyl-acyl carrier protein reductase),K. pneumoniae 5 [8]; control 41.4,80.6
same,FPKM of gene KPNJ2_01584 (Enoyl-CoA hydratase),K. pneumoniae 5 [8]; control 128,190
same,FPKM of gene KPNJ2_04200,K. pneumoniae 5 [8]; control 4040.19,4507.07
same,readcount of gene KPNJ2_00001 in treated sample,K. pneumoniae 5 [8]; differential analysis,119.391
same,readcount of gene KPNJ2_00002 in treated sample,K. pneumoniae 5 [8]; differential analysis,95.8073
same,readcount of gene KPNJ2_00003 in treated sample,K. pneumoniae 5 [8]; differential analysis,27.2682
same,readcount of gene KPNJ2_00004 in treated sample,K. pneumoniae 5 [8]; differential analysis,368.489
same,readcount of gene KPNJ2_00005 in treated sample,K. pneumoniae 5 [8]; differential analysis,375.122
same,FPKM of gene PADK2_26395,P. aeruginosa 1409 [9]; control 7.76041,10.0809
same,FPKM of gene PADK2_02440,P. aeruginosa 1409 [9]; control 10.8663,14.499
same,FPKM of gene PADK2_25635,P. aeruginosa 1409 [9]; control 48.5098,42.4346
same,FPKM of gene PADK2_02970,P. aeruginosa 1409 [9]; control 53.0528,66.953
same,FPKM of gene PADK2_25405 (3-ketoacyl-acyl carrier protein reductase),P. aeruginosa 1409 [9]; control 56,43
same,FPKM of gene PADK2_17500,P. aeruginosa 1409 [9]; control 97.7062,119.076
same,FPKM of gene PADK2_09275 (3-hydroxyacyl-CoA dehydrogenase),P. aeruginosa 1409 [9]; control 361,369
same,readcount of gene Novel00001 in treated sample,P. aeruginosa 1409 [9]; differential analysis,77.24
same,readcount of gene Novel00002 in treated sample,P. aeruginosa 1409 [9]; differential analysis,21.4195
same,readcount of gene Novel00003 in treated sample,P. aeruginosa 1409 [9]; differential analysis,79.1872
same,readcount of gene Novel00004 in treated sample,P. aeruginosa 1409 [9]; differential analysis,104.501
same,readcount of gene Novel00005 in treated sample,P. aeruginosa 1409 [9]; differential analysis,85.0289
B1,binding result,[10],binds
